# Values quoted from earlier work as cited in patent US20080255132A1, “Combination Therapy Comprising the Use of Et-743 and Paclitaxel for Treating Cancer” (priority 2003, published 2008).
# Assays:
# [1] = system: human tumor xenografts, including melanoma and ovarian and breast carcinoma; settings: human tumor xenografts grown in athymic mice
# [2] = system: sarcoma and breast and ovarian carcinoma; settings: phase I, 1-, 3-, 24-, 72-hour i.v. infusion and 1 hour daily x5 schedules
compound,measurement,setting,value
"COc1cc2c(cc1O)CCN[C@]21CS[C@@H]2c3c(OC(C)=O)c(C)c4c(c3[C@H](COC1=O)N1[C@@H]2[C@H]2c3c(cc(C)c(OC)c3O)C[C@@H]([C@@H]1O)N2C)OCO4 [ET-743, ecteinascidin 743]",Antineoplastic activity,[1],potent antineoplastic activity
same,Responses,[2],Promising responses
